Results on four compounds are retold here after patent publication US20220323406A1, “METHODS AND COMPOSITIONS FOR DIFFERENTIATING STEM CELLS” (Massachusetts Institute of Technology, priority 2019, published 2022).

Test [1] concerns ENR+CD organoids (ISC to Paneth cell differentiation). Briefly: Primary screen: basal (non-stimulated) lysozyme secretion LYZ.NS, 2.5-D 384-well ENR+CD organoid differentiation. The class given is cell-based, mouse. The settings on record: primary screen; for Z.LYZ.NS: standard z score. An excerpt:
(§1) High-throughput screening.

For test [2] the test system is unchanged. The experiment in a line: Primary screen: CCh-stimulated lysozyme secretion LYZ.S, 2.5-D 384-well ENR+CD organoid differentiation. To be noted: primary screen. In kind it is cell-based, mouse.
Excerpt: as §1

The subject of a further test is ENR+CD organoids. The experiment in a line: Primary screen: ATP (CellTiter-Glo 3D, CTG) cell number/viability, 2.5-D 384-well ENR+CD organoids.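 As to all read-outs here: compounds given at plating and again on day 3 over a 6-day differentiation from ENR+CV stem-cell-enriched precursors, ATP measured on day 6, plate median as control.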 The settings on record: primary screen; for Z.CTG: standard z score. A general note: Cellular ATP, detected with luciferase, serves as a proxy for viable cell number.
The mark [3] stands for this setting: dose 0.08 uM, FC relative to plate median.
Where [4] appears, read: dose 0.40 uM, FC relative to plate median.
Setting [5] is: dose 2.00 uM, FC relative to plate median.
The mark [6] stands for this setting: dose 10.00 uM, FC relative to plate median.

Turning to `CNC(=O)c1ccc2cc([C@@]3(O)CCn4cncc43)ccc2c1` [TAK-700 (Orteronel)], the Dose.FC.LYZ.NS was 0.176 log2 fold change in test [1] (setting [3]), 0.182 log2 fold change in test [1] (setting [4]), 0.121 log2 fold change in test [1] (setting [5]) and −0.002 log2 fold change in test [1] (setting [6]). For the same compound, the Z.LYZ.NS in test [1] (dose 0.08 uM) is 1.535; in test [1] (dose 0.40 uM) it was 1.585; in test [1] (dose 2.00 uM), 1.058; in test [1] (dose 10.00 uM) it was −0.018. In addition, the Dose.FC.LYZ.S was determined as 0.113 log2 fold change in test [2] (setting [3]), 0.090 log2 fold change in test [2] (setting [4]), 0.093 log2 fold change in test [2] (setting [5]) and 0.032 log2 fold change in test [2] (setting [6]). Moreover, the Dose.FC.CTG in the test with ENR+CD organoids (setting [3]) is on record as −0.276 log2 fold change; in the test on ENR+CD organoids (setting [4]) it was −0.024 log2 fold change; with ENR+CD organoids (setting [5]), −0.084 log2 fold change; in the test with ENR+CD organoids (setting [6]), 0.092 log2 fold change. In addition, the Z.CTG with ENR+CD organoids (dose 0.08 uM) is −0.659; in the test with ENR+CD organoids (dose 0.40 uM), −0.056; in the test with ENR+CD organoids (dose 2.00 uM) it was −0.202; with ENR+CD organoids (dose 10.00 uM), 0.219.
VU 0357121: the Dose.FC.LYZ.NS was 0.079 log2 fold change in test [1] (dose 0.08 uM), −0.010 log2 fold change in test [1] (dose 0.40 uM), 0.030 log2 fold change in test [1] (dose 2.00 uM) and −0.027 log2 fold change in test [1] (dose 10.00 uM). Besides, the “Z.LYZ.NS (standard z score)” value in test [1] (dose 0.08 uM) is reported as 0.686; in test [1] (dose 0.40 uM), −0.090; in test [1] (dose 2.00 uM), 0.261; in test [1] (dose 10.00 uM) it was −0.237. The Dose.FC.LYZ.S in test [2] (dose 0.08 uM) is on record as 0.152 log2 fold change; in test [2] (dose 0.40 uM) it was 0.034 log2 fold change; in test [2] (dose 2.00 uM), 0.007 log2 fold change; in test [2] (dose 10.00 uM), −0.034 log2 fold change. In addition, the Dose.FC.CTG with ENR+CD organoids (dose 0.08 uM) is 0.183 log2 fold change; with ENR+CD organoids (dose 0.40 uM), 0.148 log2 fold change; in the test with ENR+CD organoids (dose 2.00 uM) it was 0.012 log2 fold change; in the test on ENR+CD organoids (dose 10.00 uM), −0.059 log2 fold change. For the same compound, the “Z.CTG (standard z score)” value with ENR+CD organoids (dose 0.08 uM) was 0.438; in the test with ENR+CD organoids (dose 0.40 uM), 0.352; in the test with ENR+CD organoids (dose 2.00 uM) it was 0.029; in the test with ENR+CD organoids (dose 10.00 uM), −0.141.
On to `CCOC(=O)N1CCC(=C2c3ccc(Cl)cc3CCc3cccnc32)CC1` [Loratadine], for which the “Dose.FC.LYZ.NS (log2 fold change)” value in test [1] (dose 0.08 uM) was 0.011; in test [1] (dose 0.40 uM) it was −0.001; in test [1] (dose 2.00 uM), −0.108; in test [1] (dose 10.00 uM), −0.101. Besides, the “Z.LYZ.NS (standard z score)” value in test [1] (dose 0.08 uM) is reported as 0.093; in test [1] (dose 0.40 uM), −0.005; in test [1] (dose 2.00 uM), −0.938; in test [1] (dose 10.00 uM), −0.881. The “Dose.FC.LYZ.S (log2 fold change)” value was −0.076 in test [2] (dose 0.08 uM), 0.011 in test [2] (dose 0.40 uM), −0.148 in test [2] (dose 2.00 uM) and −0.148 in test [2] (dose 10.00 uM). For the same compound, the “Dose.FC.CTG (log2 fold change)” value was −0.292 in the test with ENR+CD organoids (dose 0.08 uM), 0.145 in the test on ENR+CD organoids (dose 0.40 uM), −0.204 with ENR+CD organoids (dose 2.00 uM) and −0.120 with ENR+CD organoids (dose 10.00 uM).
On to `O=C1CC(=O)c2c(Cl)c(Cl)c(Cl)c(Cl)c21` [TCID], for which the Dose.FC.LYZ.NS in test [1] (setting [3]) was 0.049 log2 fold change; in test [1] (setting [4]) it was −0.018 log2 fold change; in test [1] (setting [5]), 0.066 log2 fold change; in test [1] (setting [6]), −0.018 log2 fold change. Also, the Z.LYZ.NS in test [1] (dose 0.08 uM) is reported as 0.431; in test [1] (dose 0.40 uM), −0.155; in test [1] (dose 2.00 uM) it was 0.578; in test [1] (dose 10.00 uM) it was −0.159. The Dose.FC.LYZ.S in test [2] (setting [3]) is 0.062 log2 fold change; in test [2] (setting [4]), 0.017 log2 fold change; in test [2] (setting [5]) it was −0.066 log2 fold change; in test [2] (setting [6]), −0.054 log2 fold change. Further, the Dose.FC.CTG in the test on ENR+CD organoids (setting [3]) is −0.136 log2 fold change; in the test with ENR+CD organoids (setting [4]), −0.007 log2 fold change; with ENR+CD organoids (setting [5]), −0.217 log2 fold change; in the test with ENR+CD organoids (setting [6]) it was −0.228 log2 fold change. In addition, the Z.CTG in the test with ENR+CD organoids (dose 0.08 uM) is −0.325; in the test with ENR+CD organoids (dose 0.40 uM) it was −0.017; with ENR+CD organoids (dose 2.00 uM), −0.517; in the test with ENR+CD organoids (dose 10.00 uM), −0.545.
